# Data taken from ChEMBL document CHEMBL2086254, “Synthesis and identification of novel indolo[2,3-a]pyrimido[5,4-c]carbazoles as a new class of anti-cancer agents” (Eur J Med Chem, 2012).
# How the values were obtained:
# Type in all cases: functional
# OVCAR-5 = experiment: Cytotoxicity against human OVCAR5 cells after 48 hrs by SRB assay; details: OVCAR-5, 48 h
# BT-549 = experiment: Cytotoxicity against human BT549 cells after 48 hrs by SRB assay; details: BT-549, 48 h
# RXF 393 = experiment: Cytotoxicity against human RXF393 cells after 48 hrs by SRB assay; details: RXF 393, 48 h
# 786-0 = experiment: Cytotoxicity against human 786-0 cells after 48 hrs by SRB assay; details: 786-0, 48 h
# OVCAR-8 = experiment: Cytotoxicity against human OVCAR8 cells after 48 hrs by SRB assay; details: OVCAR-8, 48 h
# MDA-MB-231 = experiment: Cytotoxicity against human MDA-MB-231 cells after 48 hrs by SRB assay; details: MDA-MB-231, 48 h
# NCI-H226 = experiment: Cytotoxicity against human NCI-H226 cells after 48 hrs by SRB assay; details: NCI-H226, 48 h
# CAKI-1 = experiment: Cytotoxicity against human Caki1 cells after 48 hrs by SRB assay; details: CAKI-1, 48 h
# MCF7 = experiment: Cytotoxicity against human MCF7 cells after 48 hrs by SRB assay; details: MCF7, 48 h
# SK-MEL-5 = experiment: Cytotoxicity against human SK-MEL-5 cells after 48 hrs by SRB assay; details: SK-MEL-5, 48 h
# [1] = Cytotoxicity against human breast cancer cell after 48 hrs by SRB assay; details: Cancer cell lines
# CCRF-CEM = experiment: Cytotoxicity in human CCRF-CEM cells after 48 hrs by SRB assay
# HCT-15 = experiment: Cytotoxicity against human HCT15 cells after 48 hrs by SRB assay; details: HCT-15, 48 h
# OVCAR-4 = experiment: Cytotoxicity against human OVCAR4 cells after 48 hrs by SRB assay; details: OVCAR-4, 48 h
# SK-OV-3 = experiment: Cytotoxicity against human SKOV3 cells after 48 hrs by SRB assay; details: SK-OV-3, 48 h
# [2] = read-out: LC50 (the source's name)
compound,measurement,setting,value
Cn1c2ccccc2c2c3nc(N)[nH]c(=O)c3c3c4ccccc4n(C)c3c21,GI50,OVCAR-5,52.3 µM
same,TGI,OVCAR-5,> 100 µM
same,CC50,OVCAR-5; [2],> 100 µM
same,GI50,BT-549,16.3 µM
same,TGI,BT-549,> 100 µM
same,CC50,BT-549; [2],> 100 µM
same,GI50,RXF 393,7.47 µM
same,TGI,RXF 393,37.6 µM
same,CC50,RXF 393; [2],> 100 µM
same,GI50,786-0,7.7 µM
same,TGI,786-0,54.4 µM
same,CC50,786-0; [2],> 100 µM
same,GI50,OVCAR-8,3.82 µM
same,TGI,OVCAR-8,> 100 µM
same,CC50,OVCAR-8; [2],> 100 µM
same,GI50,MDA-MB-231,93 µM
same,TGI,MDA-MB-231,> 100 µM
same,CC50,MDA-MB-231; [2],> 100 µM
same,GI50,NCI-H226,30.6 µM
same,TGI,NCI-H226,> 100 µM
same,CC50,NCI-H226; [2],> 100 µM
same,GI50,CAKI-1,1.33 µM
same,TGI,CAKI-1,> 100 µM
same,CC50,CAKI-1; [2],> 100 µM
same,GI50,MCF7,2.13 µM
same,TGI,MCF7,44.1 µM
same,CC50,MCF7; [2],> 100 µM
same,GI50,SK-MEL-5,3.25 µM
same,TGI,SK-MEL-5,13.7 µM
same,CC50,SK-MEL-5; [2],37.9 µM
same,GI50,[1],2.13 µM
same,TGI,[1],44.1 µM
same,CC50,[1]; [2],> 100 µM
same,GI50,CCRF-CEM,3.41 µM
same,TGI,CCRF-CEM,> 100 µM
same,CC50,CCRF-CEM; [2],> 100 µM
same,GI50,HCT-15,1.98 µM
same,TGI,HCT-15,> 100 µM
same,CC50,HCT-15; [2],> 100 µM
same,GI50,OVCAR-4,16.8 µM
same,TGI,OVCAR-4,> 100 µM
same,CC50,OVCAR-4; [2],> 100 µM
same,GI50,SK-OV-3,3.56 µM
same,TGI,SK-OV-3,> 100 µM
same,CC50,SK-OV-3; [2],> 100 µM
